# Reference: US20110112044A1, “NOVEL USES OF D-MANNOPYRANOSE DERIVATIVES” (CENTRE NATIONAL DE LA RECHERCHE SCIENTIFIQUE, priority 2008, published 2011)
# Tested on: chorioallantoic membrane (CAM) of chick embryo
# Experiment: Chick embryo chorioallantoic membrane (CAM) angiogenesis assay
# Format: in vivo, chick (white Leghorn)
# Conditions: 20 μL of 6 mg/mL in PBS on nitrocellulose disk placed on CAM on 7th day, observed 12th day, estimated visually
# Excerpt: In this example, the activity of mannose-6-phosphate (M6P) and of the compounds of formulae (I-1), (I-2) and (I-3) as prepared in examples 1 to 3 above, respectively, on the inhibition of angiogenesis was studied, in comparison with three D-mannopyranoside (DM) derivatives having pro-angiogenic activity and thus not forming part of the invention (DM1: methyl 7-amino-6,7-dideoxy-α-D-mannopyranoside; DM2: methyl 6-azido-6-deoxy-α-D-mannopyranoside and DM3: methyl 7-disodiumphosphonato-6,7-dideoxy-α-D-mannohepto-pyranoside). This study was performed on chick embryos according to the method described by Ribatti D. et al., Nat. Protoc., 2006, 1(1), 85-91 with a few minor modifications.
# This study was performed on the chorioallantoic membrane (CAM) of chick embryo. The CAM is an extra-embryonic membrane formed on the fourth day of incubation by fusion of the chorion and of the allantois. It allows gas exchange between the chick embryo and the extra-embryonic environment up to the time of birth. This CAM is composed of a very thick capillary network that forms a continuous surface in direct contact with the shell. Rapid capillary proliferation of this membrane continues up to the 11th day; the mitotic index then decreases rapidly and the vascular system reaches its final organization on the 18th day, just before birth (hatching on the 21st day).
# Fertilized eggs of a hen of the white Leghorn race were placed in an incubator from the start of embryogenesis, where they were kept under constant humidity at a temperature of 38° C. On the second day of incubation, a window was opened in the shell after removal of 2 to 3 mL of albumin in order to detach the CAM from the shell. The window was then sealed with adhesive tape and the egg was returned to the incubator to continue its development up to the date of the experiment. On the 7th day, pieces of inert synthetic polymers (nitrocellulose filter disks 0.4 cm in diameter) were soaked with 20 μL of each of the solutions of the test compounds (6 mg/mL in PBS) and then positioned on the CAM. The impact of the test substances on the angiogenesis was then observed on the 12th day and the quantitative evaluation of the pro- or anti-angiogenic response was estimated visually.
row,SMILES,effect on the vascularization of chick embryos
1,"CO[C@H]1O[C@H](CCS(=O)(=O)[O-])[C@@H](O)[C@H](O)[C@@H]1O.[Na+] [(I-1), Methyl 6,7-Dideoxy-7-Sodiumsulfonato-α-d-mannoheptopyranoside]",inhibitory effect
2,"CO[C@H]1OC(CC(=O)O)[C@@H](O)C(O)C1O (stereo partly drawn) [(I-2), (Methyl 6,7-Dideoxy-α-D-Mannoheptopyranosine)uronic acid]",inhibitory effect
3,"CO[C@H]1OC(CC(C(=O)O)C(=O)O)[C@@H](O)C(O)C1O (stereo partly drawn) [(I-3), methyl 6-deoxy-6-malonate-α-D-Mannopyranoside]",inhibitory effect
4,"CO[C@H]1O[C@H](CCN)[C@@H](O)[C@H](O)[C@@H]1O [DM1, methyl 7-amino-6,7-dideoxy-α-D-mannopyranoside, reference compound]",activating effect
5,"CO[C@H]1O[C@H](CN=[N+]=[N-])[C@@H](O)[C@H](O)[C@@H]1O [DM2, methyl 6-azido-6-deoxy-α-D-mannopyranoside, reference compound]",activating effect
6,"CO[C@H]1O[C@H](CCP(=O)([O-])[O-])[C@@H](O)[C@H](O)[C@@H]1O.[Na+].[Na+] [DM3, methyl 7-disodiumphosphonato-6,7-dideoxy-α-D-mannohepto-pyranoside, reference compound]",activating effect
7,"COC1O[C@H](COP(=O)(O)O)[C@@H](O)[C@H](O)[C@@H]1O (stereo partly drawn) [M6P, methyl D-mannopyranoside 6-phosphate]",inhibitory effect
